According to US3991210A, “Acetamidine urinary antiseptics” (The Dow Chemical Company, priority 1975, dated 1976):

Columns and labels:
Proteus mirabilis = Proteus mirabilis urinary tract infection in rats, bacterial count per kidney (Example 6); format: in vivo; settings: oral; for Mean Bacterial Count (number of organisms per kidney): three doses at 4, 28, 52 hours, 72 hours
Description: In a similar operation, a Proteus mirabilis urinary tract infection was established in rats using a similar surgical technique. In separate groups, the test compound 2-(4-bromophenyl)acetamidine p-toluene-sulfonate, or the reference compound nalidixic acid, were administered orally in three doses, 4, 28 and 52 hours after completion of the surgical technique used to establish the infection. Separate groups of rats were left untreated to serve as controls. After 72 hours, the animals were euthanized with carbon dioxide. The left kidney was removed, homogenized in 9 milliliters sterile saline solution, and fivefold dilutions of the resulting brei were made in brain-heart infusion broth. Bacterial counts in the dilutions were determined after 24 hours incubation at 37° C. The oral dose in milligrams per kilogram (mg/kg); millimoles per kilogram (mM); the number of animals in each group, and the base ten logarithm (Log10) of the bacterial count (number of organisms per kidney) are set out below.

[1] = Toxicity / detrimental pharmacological effects (general statement); format: in vivo, mammals
[2] = Stability in comparison to the hydrochloride salt (general statement); format: physicochemical; settings: versus hydrochloride salt
[3] = Acute oral lethality (LD50) in mice; settings: mouse, in vivo
Description: Separate groups of mice are separately administered an aqueous composition containing 2-(4-bromophenyl)acetamidine hydrochloride. The compound is administered per os at various dosage rates, and the animals are held for 24 hours, after which deaths are recorded, and the LD50 (dosage lethal to 50 percent of the mice) is determined.

[4] = tested on: bacterial microorganisms which may infect the mammalian urinary system; assay: Urinary antiseptic activity (general statement); parameters: species or system mammals; settings: in vivo
[5] = Anorectic effect on repeated oral dosing in rats; format: in vivo; settings: 100 mg/kg per day

SMILES: Cc1ccc(S(=O)(=O)O)cc1.N=C(N)Cc1ccc(Br)cc1 [2-(4-bromophenyl)acetamidine p-toluene-sulfonate]
- Mean Bacterial Count (number of organisms per kidney) (Proteus mirabilis; 12.5 mg/kg): 7.49 Log10
- Mean Bacterial Count (number of organisms per kidney) (Proteus mirabilis; 25 mg/kg): 6.01 Log10
- Mean Bacterial Count (number of organisms per kidney) (Proteus mirabilis; 50 mg/kg): 4.23 Log10
- Mean Bacterial Count (number of organisms per kidney) (Proteus mirabilis; 100 mg/kg): 2.68 Log10
- reduction of bacterial counts relative to nalidixic acid, weight basis (Proteus mirabilis; equal dose of nalidixic acid on a weight basis): comparable to an equal dose of nalidixic acid, on a weight basis
- effectiveness relative to nalidixic acid, molar basis (Proteus mirabilis; on a molar basis): more effective, on a molar basis, than nalidixic acid
- toxicity ([1]; in vivo): low toxicity
- toxicity characteristics in comparison to the corresponding hydrochloride salt ([1]; versus hydrochloride salt): improved
- stability in comparison to the corresponding hydrochloride salt [2]: improved
- LD50 at 24 h [3]: 2610 mg/kg
- urinary antiseptic activity [4]: high degree of urinary antiseptic activity
- anorectic effect, by the fourth week ([5]; by the fourth week of dosing): decreases and substantially disappears by the fourth week of dosing
- anorectic effect, first week ([5]; during the first week): an anorectic effect is observed during the first week
